Measured values as given in patent US7915276B2, “Berberrubine derivatives having antifungal activities” (priority 2006, dated 2011).

What was measured:
[1] = target: T1, chitin synthase 1 of Candida albicans chs2 Δ chs 3 Δ (Candida albicans, UniProt P23316); test: In vitro enzyme assay for chitin synthase 1 of Candida albicans (enzyme 1); assay type: biochemical; details: relative to polyoxin D (50% inhibitory activity = value 5)
T1 construct: Crude enzyme was prepared using the Candida albicans chs2 Δ chs 3 Δ mutant; endogenous in cells; host or cells: Candida albicans chs2Δ/chs2Δ chs3Δ/chs3Δ mutant; 130,000 x g membrane pellet
Procedure, shortened: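 Trypsin-activated crude membrane chitin synthase 1 from C. albicans chs2Δ chs3Δ was incubated 90 min at 30 °C with 1.1 mM UDP-[14C]GlcNAc and 2 mM cobalt acetate in Tris-HCl pH 7.5. Filtered TCA precipitate was counted by scintillation; values are scores 1–8 against polyoxin D (5 = same concentration).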

[2] = target: T2, chitin synthase 2 of Saccharomyces cerevisiae ECY38-38A(pAS6) (Saccharomyces cerevisiae, UniProt P14180); test: In vitro enzyme assay for chitin synthase 2 of Saccharomyces cerevisiae (enzyme 2); assay type: biochemical; details: relative to polyoxin D (50% inhibitory activity = value 5)
T2 construct: made in house; host or cells: Saccharomyces cerevisiae ECY38-38A (chs1-23 chs2::LEU2 cal1/csd2) carrying plasmid pAS6, grown in galactose medium; 130,000 x g membrane pellet
Procedure, shortened: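 Values are scores: 5 means 50% inhibition at the same concentration as polyoxin D, lower scores 2- to 16-fold higher concentration, higher scores ½ to ⅛. Radiolabel from 1.1 mM UDP-[14C]-GlcNAc was incorporated into TCA-insoluble chitin over 90 min at 30 °C (pH 7.5 Tris, 2 mM Co2+). The enzyme was a trypsin-activated membrane fraction from CHS2-only S. cerevisiae ECY38-38A(pAS6).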

[3] = test system: Aspergillus flavus ATCC 64025; test: In vitro antifungal activity (MIC), NCCLS method; assay type: cell-based; details: 48 hours
Excerpt: (§1) Candida albicans ATCC 10231, Candida lusitaniae ATCC 42720, Candida krusei ATCC 6258, Candida tropicalis ATCC 13803, Candida glabrata ATCC 48435, Candida parapsilosis ATCC 34136, Cryptococcus neoformans ATCC 36556, Aspergillus fumigatus ATCC 16424, Aspergillus flavus ATCC 64025, Aspergillus terreus ATCC 46941 and Mucor ramosissimus ATCC 90286 strains for the MIC (minimum inhibitory concentration) measurement were obtained from ATCC (American Type Culture Collection) in the U.S. The Candida albicans A207(clinical isolate) strain was used by isolating it from the patients.
(§2) The determination of MIC was performed according to the NCCLS (National Committee for Clinical Laboratory Standard) method. Each test sample solution was diluted two-fold and inoculated with a fungal suspension to reach a final inoculum size of 5×10^2 to 2.5×10^3 cell/mL. The Cryptococcus neoformans strain was cultured in the RPMI 1640 medium for 72 hours. Other strains were cultured for 48 hours.

[4] = test system: Aspergillus fumigatus ATCC 16424; test: In vitro antifungal activity (MIC), NCCLS method; assay type: cell-based; details: 48 hours
Excerpt: as §1, §2

[5] = test system: Aspergillus terreus ATCC 46941; test: In vitro antifungal activity (MIC), NCCLS method; assay type: cell-based; details: 48 hours
Excerpt: as §1, §2

[6] = test system: Candida albicans A207 (clinical isolate); test: In vitro antifungal activity (MIC), NCCLS method; assay type: cell-based; details: 48 hours
Excerpt: as §1, §2

[7] = test system: Candida albicans ATCC 10231; test: In vitro antifungal activity (MIC), NCCLS method; assay type: cell-based; details: 48 hours
Excerpt: as §1, §2

[8] = test system: Candida glabrata ATCC 48435; test: In vitro antifungal activity (MIC), NCCLS method; assay type: cell-based; details: Candida glabrata ATCC 48435; 48 hours
Excerpt: as §1, §2

Candida krusei ATCC 6258 = test: In vitro antifungal activity (MIC), NCCLS method; assay type: cell-based; details: 48 hours
Excerpt: as §1, §2

[9] = test system: Candida lusitaniae ATCC 42720; test: In vitro antifungal activity (MIC), NCCLS method; assay type: cell-based; details: 48 hours
Excerpt: as §1, §2

[10] = test system: Candida parapsilosis ATCC 34136; test: In vitro antifungal activity (MIC), NCCLS method; assay type: cell-based; details: Candida parapsilosis ATCC 34136; 48 hours
Excerpt: as §1, §2

[11] = test system: Candida tropicalis ATCC 13803; test: In vitro antifungal activity (MIC), NCCLS method; assay type: cell-based; details: 48 hours
Excerpt: as §1, §2

[12] = test system: Cryptococcus neoformans ATCC 36556; test: In vitro antifungal activity (MIC), NCCLS method; assay type: cell-based; details: RPMI 1640 medium, 72 hours
Excerpt: as §1, §2

[13] = test system: Mucor ramosissimus ATCC 90286; test: In vitro antifungal activity (MIC), NCCLS method; assay type: cell-based; details: 48 hours
Excerpt: as §1, §2

T1 sequence (P23316 whole entry, stated change not applied): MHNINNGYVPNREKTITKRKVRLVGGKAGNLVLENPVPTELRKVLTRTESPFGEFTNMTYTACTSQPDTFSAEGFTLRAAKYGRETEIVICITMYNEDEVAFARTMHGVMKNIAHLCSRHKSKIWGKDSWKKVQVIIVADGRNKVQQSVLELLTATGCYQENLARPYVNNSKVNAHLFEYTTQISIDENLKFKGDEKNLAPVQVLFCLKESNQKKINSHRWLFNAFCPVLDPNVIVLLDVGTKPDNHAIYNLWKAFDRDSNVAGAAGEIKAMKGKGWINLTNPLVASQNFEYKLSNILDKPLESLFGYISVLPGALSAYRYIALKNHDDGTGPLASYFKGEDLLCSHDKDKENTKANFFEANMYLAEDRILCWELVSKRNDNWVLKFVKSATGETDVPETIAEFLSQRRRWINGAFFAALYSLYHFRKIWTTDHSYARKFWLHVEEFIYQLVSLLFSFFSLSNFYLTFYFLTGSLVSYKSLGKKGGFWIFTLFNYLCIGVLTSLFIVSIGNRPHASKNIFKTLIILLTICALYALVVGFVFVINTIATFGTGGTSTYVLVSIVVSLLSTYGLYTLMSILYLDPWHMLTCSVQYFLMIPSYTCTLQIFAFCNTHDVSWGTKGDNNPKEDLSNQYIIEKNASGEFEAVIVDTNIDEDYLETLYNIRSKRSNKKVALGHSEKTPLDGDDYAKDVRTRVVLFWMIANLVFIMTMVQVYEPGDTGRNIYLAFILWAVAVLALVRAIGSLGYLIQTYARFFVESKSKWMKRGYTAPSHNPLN
T2 sequence (P14180 whole entry): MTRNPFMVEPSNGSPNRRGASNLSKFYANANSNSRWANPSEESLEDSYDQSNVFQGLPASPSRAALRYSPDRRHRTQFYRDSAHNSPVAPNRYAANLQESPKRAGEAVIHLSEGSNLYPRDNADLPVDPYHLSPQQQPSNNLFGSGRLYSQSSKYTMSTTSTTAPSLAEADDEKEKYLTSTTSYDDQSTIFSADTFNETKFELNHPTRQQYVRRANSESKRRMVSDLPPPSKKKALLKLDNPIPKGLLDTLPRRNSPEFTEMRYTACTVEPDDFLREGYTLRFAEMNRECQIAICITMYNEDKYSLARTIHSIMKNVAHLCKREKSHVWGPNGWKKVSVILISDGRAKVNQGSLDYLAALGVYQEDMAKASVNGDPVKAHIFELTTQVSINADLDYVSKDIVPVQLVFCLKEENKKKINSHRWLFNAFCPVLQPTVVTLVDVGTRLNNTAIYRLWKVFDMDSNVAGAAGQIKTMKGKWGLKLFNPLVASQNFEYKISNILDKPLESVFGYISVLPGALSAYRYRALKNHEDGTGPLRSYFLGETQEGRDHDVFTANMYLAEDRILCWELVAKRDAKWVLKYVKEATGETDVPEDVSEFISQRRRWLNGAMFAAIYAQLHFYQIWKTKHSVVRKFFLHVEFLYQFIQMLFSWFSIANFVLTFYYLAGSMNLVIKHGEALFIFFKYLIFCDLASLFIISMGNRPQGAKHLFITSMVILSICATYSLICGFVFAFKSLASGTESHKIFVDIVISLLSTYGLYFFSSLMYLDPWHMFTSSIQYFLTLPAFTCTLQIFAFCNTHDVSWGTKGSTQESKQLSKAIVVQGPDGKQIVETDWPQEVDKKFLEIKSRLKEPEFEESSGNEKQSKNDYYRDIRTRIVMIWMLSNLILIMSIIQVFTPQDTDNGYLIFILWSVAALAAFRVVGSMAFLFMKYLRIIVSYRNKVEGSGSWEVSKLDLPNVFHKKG

Row | Substance | Relative activity Enzyme 1 [1] | Relative activity Enzyme 2 [2] | MIC (minimum inhibitory concentration) [3] [µg/mL] | MIC (minimum inhibitory concentration) [4] [µg/mL] | MIC (minimum inhibitory concentration) [5] [µg/mL] | MIC (minimum inhibitory concentration) [6] [µg/mL] | MIC (minimum inhibitory concentration) [7] [µg/mL] | MIC (minimum inhibitory concentration) [8] [µg/mL] | MIC (minimum inhibitory concentration) (Candida krusei ATCC 6258) [µg/mL] | MIC (minimum inhibitory concentration) [9] [µg/mL] | MIC (minimum inhibitory concentration) [10] [µg/mL] | MIC (minimum inhibitory concentration) [11] [µg/mL] | MIC (minimum inhibitory concentration) [12] [µg/mL] | MIC (minimum inhibitory concentration) [13] [µg/mL]
1 | 13-(4-Isopropylbenzyl)-9-O-allylberberrubine iodide [Compound No. 23] | 2 (Compounds having the inhibitory activity at 2-fold, 4-fold, 8-fold and 16-fold higher concentrations than that of polyoxin D were given the values of 4, 3, 2 and 1, respectively) | 5 (A compound having the same inhibitory activity as that of polyoxin D at the same concentration was given the value 5) | 8 | 8 | 8 | 1 | 1 | 8 | 2 | 2 | 4 | 1 | 2 | 4
2 | 13-(4-Isopropylbenzyl)-9-O-crotylberberrubine bromide [Compound No. 24] | 2 (Compounds having the inhibitory activity at 2-fold, 4-fold, 8-fold and 16-fold higher concentrations than that of polyoxin D were given the values of 4, 3, 2 and 1, respectively) | 5 (A compound having the same inhibitory activity as that of polyoxin D at the same concentration was given the value 5) | 8 | 2 | 4 | 0.5 | 0.5 | 4 | 1 | 1 | 4 | 0.5 | 1 | 4
3 | 13-(4-Isopropylbenzyl)-9-O-hexylberberrubine chloride [Compound No. 51] | 3 (Compounds having the inhibitory activity at 2-fold, 4-fold, 8-fold and 16-fold higher concentrations than that of polyoxin D were given the values of 4, 3, 2 and 1, respectively) | 6 (compounds having the inhibitory activity at ½, ¼ and ⅛ lower concentrations than that of polyoxin D were given the values of 6, 7 and 8, respectively) | 8 | 2 | 8 | 0.25 | 0.25 | 2 | 1 | 0.5 | 2 | 0.125 | 0.5 | 4
4 | 13-(4-Isopropylbenzyl)-9-O-hexylberberrubine iodide [Compound No. 19] | 4 (Compounds having the inhibitory activity at 2-fold, 4-fold, 8-fold and 16-fold higher concentrations than that of polyoxin D were given the values of 4, 3, 2 and 1, respectively) | 6 (compounds having the inhibitory activity at ½, ¼ and ⅛ lower concentrations than that of polyoxin D were given the values of 6, 7 and 8, respectively) | 8 | 2 | 8 | 0.25 | 0.25 | 2 | 1 | 1 | 2 | 0.125 | 1 | 4
5 | 13-(4-Isopropylbenzyl)-9-O-octylberberrubine chloride [Compound No. 52] | 2 (Compounds having the inhibitory activity at 2-fold, 4-fold, 8-fold and 16-fold higher concentrations than that of polyoxin D were given the values of 4, 3, 2 and 1, respectively) | 6 (compounds having the inhibitory activity at ½, ¼ and ⅛ lower concentrations than that of polyoxin D were given the values of 6, 7 and 8, respectively) | 4 | 2 | 4 | 0.25 | 0.25 | 1 | 1 | 0.5 | 1 | 0.125 | 0.5 | 2
6 | 13-(4-Isopropylbenzyl)-9-O-octylberberrubine iodide [Compound No. 20] | 3 (Compounds having the inhibitory activity at 2-fold, 4-fold, 8-fold and 16-fold higher concentrations than that of polyoxin D were given the values of 4, 3, 2 and 1, respectively) | 5 (A compound having the same inhibitory activity as that of polyoxin D at the same concentration was given the value 5) | 4 | 2 | 4 | 0.25 | 0.25 | 2 | 1 | 0.5 | 2 | 0.125 | 1 | 2
7 | 13-(4-isopropylbenzyl)-9-O-crotylberberrubine chloride [Compound No. 56] | 2 (Compounds having the inhibitory activity at 2-fold, 4-fold, 8-fold and 16-fold higher concentrations than that of polyoxin D were given the values of 4, 3, 2 and 1, respectively) | 6 (compounds having the inhibitory activity at ½, ¼ and ⅛ lower concentrations than that of polyoxin D were given the values of 6, 7 and 8, respectively) | 8 | 2 | 4 | 0.5 | 0.5 | 4 | 1 | 1 | 4 | 0.5 | 1 | 4
